# From ChEMBL document CHEMBL4334464, “From Phenylthiazoles to Phenylpyrazoles: Broadening the Antibacterial Spectrum toward Carbapenem-Resistant Bacteria” (J Med Chem, 2019)
# Active and inactive are the calls of the source. No cut-off for these calls is given here.
# Key:
# Staphylococcus aureus [1] = test: Antibacterial activity against methicillin-resistant Staphylococcus aureus NRS384-USA300 clinical isolates after 18 to 20 hrs in aerobic condition by CLSI protocol based broth microdilution assay; assay type: functional
# Staphylococcus aureus [2] = test: Antibacterial activity against Methicillin-sensitive Staphylococcus aureus ATCC 6538 clinical isolates after 18 to 20 hrs in aerobic condition by CLSI protocol based broth microdilution assay; assay type: functional
# Staphylococcus aureus [3] = test: Antibacterial activity against Methicillin-resistant Staphylococcus aureus NRS123-USA400 clinical isolates after 18 to 20 hrs in aerobic condition by CLSI protocol based broth microdilution assay; assay type: functional
# Staphylococcus aureus [4] = test: Antibacterial activity against Methicillin-resistant Staphylococcus aureus USA700-NRS386 clinical isolates after 18 to 20 hrs in aerobic condition by CLSI protocol based broth microdilution assay; assay type: functional
# Staphylococcus aureus [5] = test: Antibacterial activity against vancomycin-resistant Staphylococcus aureus isolate 10 after 18 to 20 hrs in aerobic condition by CLSI-based broth microdilution assay; assay type: functional
# Staphylococcus aureus [6] = test: Antibacterial activity against vancomycin-resistant Staphylococcus aureus isolate 12 after 18 to 20 hrs in aerobic condition by CLSI-based broth microdilution assay; assay type: functional
# Staphylococcus aureus [7] = test: Bactericidal activity against methicillin-resistant Staphylococcus aureus NRS123-USA400 clinical isolates at 5 times MIC incubated over 24 hrs followed by replating on tryptic soy agar plate and further incubated for 18 to 20 hrs by time kill assay; assay type: functional, organism-based
# Enterococcus faecalis = test: Antibacterial activity against vancomycin-resistant Enterococcus faecalis ATCC 51299 clinical isolates after 18 to 20 hrs in aerobic condition by CLSI-based broth microdilution assay; assay type: functional
# Streptococcus pneumoniae [8] = test: Antibacterial activity against methicillin-resistant Streptococcus pneumoniae ATCC 700677 clinical isolates after 18 to 20 hrs by CLSI-based broth microdilution assay; assay type: functional
# Acinetobacter baumannii [9] = test: Antibacterial activity against Acinetobacter baumannii ATCC BAA 1141 clinical isolates after 18 to 20 hrs in aerobic condition by CLSI-based broth microdilution assay; assay type: functional
# Acinetobacter baumannii [10] = test: Antibacterial activity against Acinetobacter baumannii NR 17785 clinical isolates after 18 to 20 hrs in aerobic condition by CLSI-based broth microdilution assay; assay type: functional
# Escherichia coli [11] = test: Antibacterial activity against Escherichia coli BW25113 clinical isolates after 18 to 20 hrs in aerobic condition by CLSI-based broth microdilution assay; assay type: functional
# Escherichia coli [12] = test: Antibacterial activity against Escherichia coli ATCC 25922 clinical isolates after 18 to 20 hrs in aerobic condition by CLSI-based broth microdilution assay; assay type: functional
# [13] = Antibacterial activity against Enterobacter cloacae subsp. cloacae ATCC BAA-1143 clinical isolates after 18 to 20 hrs in aerobic condition by CLSI-based broth microdilution assay; assay type: functional
# Salmonella enteritidis [14] = test: Antibacterial activity against Salmonella enteritidis ATCC 13076 clinical isolates after 18 to 20 hrs in aerobic condition by CLSI-based broth microdilution assay; assay type: functional, Salmonella enterica subsp. enterica serovar Enteritidis; conditions: Salmonella enterica
# Salmonella enteritidis [15] = test: Antibacterial activity against Salmonella enteritidis ATCC 14028 clinical isolates after 18 to 20 hrs in aerobic condition by CLSI-based broth microdilution assay; assay type: functional, Salmonella enterica subsp. enterica serovar Enteritidis; conditions: Salmonella enterica
# Salmonella typhimurium = test: Antibacterial activity against Salmonella typhimurium ATCC 700720 after 18 to 20 hrs in aerobic condition by CLSI-based broth microdilution assay; assay type: functional, Salmonella enterica subsp. enterica serovar Typhimurium; conditions: Salmonella enterica
# Klebsiella pneumoniae [16] = test: Antibacterial activity against carbapenem-resistant Klebsiella pneumoniae ATCC BAA-1705 clinical isolates after 18 to 20 hrs in aerobic condition by CLSI-based broth microdilution assay; assay type: functional
# Klebsiella pneumoniae [17] = test: Antibacterial activity against carbapenem-resistant Klebsiella pneumoniae ATCC BAA-2146 clinical isolates after 18 to 20 hrs in aerobic condition by CLSI-based broth microdilution assay; assay type: functional
# Pseudomonas aeruginosa [18] = test: Antibacterial activity against carbapenem-resistant Pseudomonas aeruginosa ATCC 1744 clinical isolates after 18 to 20 hrs in aerobic condition by CLSI-based broth microdilution assay; assay type: functional
# [19] = molecular target: T1, Ditrans,polycis-undecaprenyl-diphosphate synthase ((2E,6E)-farnesyl-diphosphate specific) (Escherichia coli (strain K12)) (UniProt P60472); test: Inhibition of Escherichia coli UPPS using FPP/IPP as substrate preincubated for 30 mins followed by substrates addition and measured after 30 mins by malachite green reagent based assay
# T1 sequence (whole entry): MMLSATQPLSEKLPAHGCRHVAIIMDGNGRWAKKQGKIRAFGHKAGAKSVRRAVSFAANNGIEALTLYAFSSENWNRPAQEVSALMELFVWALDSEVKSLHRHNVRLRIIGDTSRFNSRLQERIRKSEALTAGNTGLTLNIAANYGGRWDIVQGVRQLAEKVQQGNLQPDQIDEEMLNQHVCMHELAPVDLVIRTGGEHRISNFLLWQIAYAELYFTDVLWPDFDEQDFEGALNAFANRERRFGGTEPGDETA
# Staphylococcus aureus [20] = test: Ratio of MBC to MIC for Methicillin-sensitive Staphylococcus aureus ATCC 6538 clinical isolates; assay type: functional
# Enterococcus faecium = test: Ratio of MBC to MIC for vancomycin-resistant Enterococcus faecium ATCC 700221 clinical isolates; assay type: functional
# Listeria monocytogenes = test: Ratio of MBC to MIC for Listeria monocytogenes ATCC 19111 clinical isolates; assay type: functional
# Streptococcus pneumoniae [21] = test: Ratio of MBC to MIC for cephalosporin-resistant Streptococcus pneumoniae ATCC 51916 clinical isolates; assay type: functional
# Acinetobacter baumannii [22] = test: Ratio of MBC to MIC for Acinetobacter baumannii ATCC 19606 clinical isolates; assay type: functional, ATCC 19606 = CIP 70.34 = JCM 6841
# Acinetobacter baumannii [23] = test: Ratio of MBC to MIC for Acinetobacter baumannii ATCC BAA 1747 clinical isolates; assay type: functional
# Escherichia coli [24] = test: Ratio of MBC to MIC for Escherichia coli ATCC 25922 clinical isolates; assay type: functional
# Escherichia coli [25] = test: Ratio of MBC to MIC for Escherichia coli ATCC 35150 clinical isolates; assay type: functional
# Escherichia coli [26] = test: Ratio of MBC to MIC for Escherichia coli ATCC 1411 clinical isolates; assay type: functional
# [27] = test system: Enterobacter cloacae subsp. cloacae; test: Ratio of MBC to MIC for Enterobacter cloacae subsp. cloacae ATCC BAA-1143 clinical isolates; assay type: functional
# Klebsiella pneumoniae [28] = test: Ratio of MBC to MIC for Klebsiella pneumoniae BAA-1144 clinical isolates; assay type: functional
# Salmonella enterica = test: Ratio of MBC to MIC for Salmonella enterica NR-170 clinical isolates; assay type: functional
# Salmonella enteritidis [29] = test: Ratio of MBC to MIC for Salmonella enteritidis ATCC 14028 clinical isolates; assay type: functional, Salmonella enterica subsp. enterica serovar Enteritidis
# Shigella flexneri = test: Ratio of MBC to MIC for Shigella flexneri ATCC 9199 clinical isolates; assay type: functional
# Pseudomonas aeruginosa [30] = test: Ratio of MBC to MIC for Pseudomonas aeruginosa ATCC 9027 clinical isolates; assay type: functional
# Pseudomonas aeruginosa [31] = test: Ratio of MBC to MIC for Pseudomonas aeruginosa ATCC 25619 clinical isolates; assay type: functional
# Pseudomonas aeruginosa [32] = test: Ratio of MBC to MIC for Pseudomonas aeruginosa ATCC 15442 clinical isolates; assay type: functional
# Escherichia coli [33] = test: microbe, parasite or virus in culture; conditions: ATCC 1411
# Description: Antibacterial activity against Escherichia coli ATCC 1411 clinical isolates after 18 to 20 hrs in aerobic condition by CLSI-based broth microdilution assay
# Pseudomonas aeruginosa [34] = test: microbe, parasite or virus in culture; conditions: ATCC 25619
# Description: Antibacterial activity against Pseudomonas aeruginosa ATCC 25619 clinical isolates after 18 to 20 hrs in aerobic condition by CLSI-based broth microdilution assay
SMILES,MIC (Staphylococcus aureus [1]) [µg/mL],MIC (Staphylococcus aureus [2]) [µg/mL],MIC (Staphylococcus aureus [3]) [µg/mL],MIC (Staphylococcus aureus [4]) [µg/mL],MIC (Staphylococcus aureus [5]) [µg/mL],MIC (Staphylococcus aureus [6]) [µg/mL],Activity (Staphylococcus aureus [7]),MIC (Enterococcus faecalis) [µg/mL],MIC (Streptococcus pneumoniae [8]) [µg/mL],MIC (Acinetobacter baumannii [9]) [µg/mL],MIC (Acinetobacter baumannii [10]) [µg/mL],MIC (Escherichia coli [11]) [µg/mL],MIC (Escherichia coli [12]) [µg/mL],MIC [13] [µg/mL],MIC (Salmonella enteritidis [14]) [µg/mL],MIC (Salmonella enteritidis [15]) [µg/mL],MIC (Salmonella typhimurium) [µg/mL],MIC (Klebsiella pneumoniae [16]) [µg/mL],MIC (Klebsiella pneumoniae [17]) [µg/mL],MIC (Pseudomonas aeruginosa [18]) [µg/mL],further results
CCCCCC#Cc1ccc(-n2ncc(/C(C)=N/NC(=N)N)c2C)cc1,2,2,2,2,2,2,Active,2,2,4,8,8,8,8,8,16,8,16,32,32,inhibition [19]: inactive; Ratio (Staphylococcus aureus [20]): <=2; Ratio (Enterococcus faecium): <3; Ratio (Listeria monocytogenes): <3; Ratio (Streptococcus pneumoniae [21]): <3; Ratio (Acinetobacter baumannii [22]): >=1; Ratio (Acinetobacter baumannii [23]): >=1; Ratio (Escherichia coli [24]): >=1; Ratio (Escherichia coli [25]): >=1; Ratio (Escherichia coli [26]): >=1; Ratio [27]: > 1; Ratio (Klebsiella pneumoniae [28]): >=1; Ratio (Salmonella enterica): >=1; Ratio (Salmonella enteritidis [29]): >=1; Ratio (Shigella flexneri): >=1; Ratio (Pseudomonas aeruginosa [30]): >=1; Ratio (Pseudomonas aeruginosa [31]): >=1; Ratio (Pseudomonas aeruginosa [32]): >=1; MIC (Escherichia coli [33]): 16 µg/mL; MIC (Pseudomonas aeruginosa [34]): 32 µg/mL
C/C(=N\NC(=N)N)c1cnn(-c2ccc(C#CC3CCCCC3)cc2)c1C,2,2,2,2,2,2,Active,2,2,4,8,4,4,8,16,32,8,8,8,32,inhibition [19]: inactive; Ratio (Staphylococcus aureus [20]): <=2; Ratio (Enterococcus faecium): <3; Ratio (Listeria monocytogenes): <3; Ratio (Streptococcus pneumoniae [21]): <3; Ratio (Acinetobacter baumannii [22]): >=1; Ratio (Acinetobacter baumannii [23]): >=1; Ratio (Escherichia coli [24]): >=1; Ratio (Escherichia coli [25]): >=1; Ratio (Escherichia coli [26]): >=1; Ratio [27]: > 1; Ratio (Klebsiella pneumoniae [28]): >=1; Ratio (Salmonella enterica): >=1; Ratio (Salmonella enteritidis [29]): >=1; Ratio (Shigella flexneri): >=1; Ratio (Pseudomonas aeruginosa [30]): >=1; Ratio (Pseudomonas aeruginosa [31]): >=1; Ratio (Pseudomonas aeruginosa [32]): >=1; MIC (Escherichia coli [33]): 8 µg/mL; MIC (Pseudomonas aeruginosa [34]): 64 µg/mL
CCCC#Cc1ccc(-n2ncc(/C(C)=N/NC(=N)N)c2C)cc1,4,2,2,4,2,2,Active,4,4,8,8,8,8,16,16,16,16,16,32,32,inhibition [19]: inactive; Ratio (Staphylococcus aureus [20]): <=2; Ratio (Enterococcus faecium): <3; Ratio (Listeria monocytogenes): <3; Ratio (Streptococcus pneumoniae [21]): <3; Ratio (Acinetobacter baumannii [22]): >=1; Ratio (Acinetobacter baumannii [23]): >=1; Ratio (Escherichia coli [24]): >=1; Ratio (Escherichia coli [25]): >=1; Ratio (Escherichia coli [26]): >=1; Ratio [27]: > 1; Ratio (Klebsiella pneumoniae [28]): >=1; Ratio (Salmonella enterica): >=1; Ratio (Salmonella enteritidis [29]): >=1; Ratio (Shigella flexneri): >=1; Ratio (Pseudomonas aeruginosa [30]): >=1; Ratio (Pseudomonas aeruginosa [31]): >=1; Ratio (Pseudomonas aeruginosa [32]): >=1; MIC (Escherichia coli [33]): 16 µg/mL; MIC (Pseudomonas aeruginosa [34]): 16 µg/mL
